Test results from US20200397818A1, “Multi-Mineral Supplement for Improved Bone Density” (priority 2017, published 2020).

Tested on: human mescenchymal stem cell (hMSCs)
Settings: MTT
Experimental: The MTT colorimetric cell viability provides a straightforward and quantifiable method for determining cell viability in a wide variety of cell types. An MTT assay was used to determine the cytotoxicity of Mg, Sr, Cu, and/or Zn ions in human mescenchymal stem cells. In a typical assay 2.8×10^4 cells/cm^2 human mescenchymal stem cell (hMSCs) were cultured in a low glucose DMEM culture medium supplemented with 10% (v/v) fetal bovine serum (FBS, Biowest, France), antibiotics (100 U/ml of penicillin and 100 μg/ml of streptomycin), and 2 mM L-glutamine using 96-well tissue culture plates. After one day of cell culture, testing solutions with a range of concentrations (Table 1) of different potential ions were added to the wells. The MTT solution was prepared by adding thiazolyl blue tetrazolium bromide powder to the phosphate buffered saline (PBS, OXOID Limited, England) and 10 μL of 5 mg/mL MTT solution was added on the next day. 100 μL of 10% sodium dodecyl sulfate (SDS, Sigma, USA) in 0.01 M hydrochloric acid was added to each well after four hours of culturing and incubated at 37° C. in an atmosphere of 5% CO2 and 95% air overnight. Finally, the absorbance was recorded by a multimode detector at a wavelength of 570 nm with a reference wavelength of 640 nm. Cell viability was quantified from the absorbance readings.

[Cl-].[Cl-].[Mg+2] [Mg ion, MgCl2]
ion concentration above which most of the cells became non-viable (ion tested independently): exceeded 1000 ppm
ion concentration above which viability began to decrease (ion tested independently): exceeded 400 ppm

[Cl-].[Cl-].[Zn+2] [Zn ions, ZnCl2]
ion concentration above which significant cell death was found (ion tested independently): exceeded 1 ppm

[Cl-].[Cl-].[Sr+2] [Sr ion, SrCl2]
cell viability relative to control cells (ion concentrations of 100 to 400 ppm): 115%
cell viability (treatment with up to 1,000 ppm): ~100%

O=S(=O)([O-])[O-].[Cu+2] [Cu ions, CuSO4]
ion concentration with loss of viability (ion tested independently): ≥ 25 ppm
